Measured values reported in ChEMBL document CHEMBL1201862, “PubChem BioAssay data set” (2004).
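1) Cells in 96-well plates. 2) Compound, 48 h, 5 concentrations. 3) Linear interpolation between surrounding doses. 4) Unreached endpoint = highest concentration. At the GI50, growth is halved.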 The source made the active and inactive calls. Cut-off read from the data, not from the text of the source: active = GI50 up to about 1.1 µM and inactive = higher.

Experiments:
Assay in all cases: NCI anticancer screen, dose series, 48 h
OVCAR-5 = tested on: OVCAR-5
HOP-92 = tested on: HOP-92
SNB-19 = tested on: SNB-19
SK-MEL-5 = tested on: SK-MEL-5
LOX IMVI = tested on: LOX IMVI
OVCAR-8 = tested on: OVCAR-8
SF-295 = tested on: SF-295
HL-60 = tested on: HL-60
786-0 = tested on: 786-0
OVCAR-3 = tested on: OVCAR-3
MOLT-4 = tested on: MOLT-4
COLO 205 = tested on: COLO 205
T47D = tested on: T47D
CAKI-1 = tested on: CAKI-1
HOP-62 = tested on: HOP-62
HCC 2998 = tested on: HCC 2998
MDA-MB-231 = tested on: MDA-MB-231
OVCAR-4 = tested on: OVCAR-4
K562 = tested on: K562
PC-3 = tested on: PC-3

SMILES | GI50 (OVCAR-5) | GI50 (HOP-92) | GI50 (SNB-19) | GI50 (SK-MEL-5) | GI50 (LOX IMVI) | GI50 (OVCAR-8) | GI50 (SF-295) | GI50 (HL-60) | GI50 (786-0) | GI50 (OVCAR-3) | GI50 (MOLT-4) | GI50 (COLO 205) | GI50 (T47D) | GI50 (CAKI-1) | GI50 (HOP-62) | GI50 (HCC 2998) | GI50 (MDA-MB-231) | GI50 (OVCAR-4) | GI50 (K562) | GI50 (PC-3)
COc1ccc(/C=C2/CSC/C(=C/c3ccc(OC)c(OC)c3)C2=O)cc1OC | 4.62 µM (inactive) | 8.93 µM (inactive) | 3.5 µM (inactive) | 2.44 µM (inactive) | 1.27 µM (inactive) | 0.664 µM (active) | 2.44 µM (inactive) | 1.03 µM (active) | 2.02 µM (inactive) | 2 µM (inactive) | 1.74 µM (inactive) | 2.24 µM (inactive) | 2.21 µM (inactive) | 3.49 µM (inactive) | 3.67 µM (inactive) | 2.57 µM (inactive) | 3.28 µM (inactive) | 1.71 µM (inactive) | 1.42 µM (inactive) | 3.03 µM (inactive)
Cc1cc(NCC2CC/C(=C\C=C\c3ccccc3)C2=O)no1 (stereo not given) | > 100 µM (inactive) | 78.5 µM (inactive) | > 100 µM (inactive) | 94.4 µM (inactive) | > 100 µM (inactive) | > 100 µM (inactive) | 40.8 µM (inactive) | 42.7 µM (inactive) | > 100 µM (inactive) | > 100 µM (inactive) | 49.3 µM (inactive) | > 100 µM (inactive) | > 100 µM (inactive) | > 100 µM (inactive) | > 100 µM (inactive) | > 100 µM (inactive) | 98.4 µM (inactive) | > 100 µM (inactive) | 92.7 µM (inactive) | > 100 µM (inactive)
O=C(O)c1nn[nH]c1S | > 100 µM (inactive) | 4.59 µM (inactive) | > 100 µM (inactive) | > 100 µM (inactive) | > 100 µM (inactive) | > 100 µM (inactive) | > 100 µM (inactive) | > 100 µM (inactive) | > 100 µM (inactive) | > 100 µM (inactive) | > 100 µM (inactive) | > 100 µM (inactive) | > 100 µM (inactive) | > 100 µM (inactive) | > 100 µM (inactive) | > 100 µM (inactive) | > 100 µM (inactive) | > 100 µM (inactive) | > 100 µM (inactive) | > 100 µM (inactive)
COC(=O)CCC(=O)NC1=C(Nc2ccccc2)C(=O)c2ccccc2C1=O | 9.27 µM (inactive) | 15 µM (inactive) | 17.2 µM (inactive) | 1.83 µM (inactive) | 4.34 µM (inactive) | 11.4 µM (inactive) | 15.4 µM (inactive) | 3.36 µM (inactive) | 12.3 µM (inactive) | 2.94 µM (inactive) | 12.1 µM (inactive) | 16.7 µM (inactive) | 13.3 µM (inactive) | 14.4 µM (inactive) | 17.8 µM (inactive) | 22.9 µM (inactive) | 9.66 µM (inactive) | 10.5 µM (inactive) | 14.8 µM (inactive) | 12.4 µM (inactive)
O=c1c2nc(-c3ccccc3)oc2n(-c2ccccc2)c(=O)n1-c1ccccc1 | > 46.5 µM (inactive) | 14.4 µM (inactive) | 20.7 µM (inactive) | 23.7 µM (inactive) | 38.5 µM (inactive) | 23.3 µM (inactive) | 19.1 µM (inactive) | > 100 µM (inactive) | 17.5 µM (inactive) | 25.8 µM (inactive) | > 46.5 µM (inactive) | > 46.5 µM (inactive) | 37.9 µM (inactive) | 8.18 µM (inactive) | 17.5 µM (inactive) | > 46.5 µM (inactive) | 29.3 µM (inactive) | 18.8 µM (inactive) | > 46.5 µM (inactive) | 44.4 µM (inactive)
C1=N\CCNCC/N=C/c2ccccc2OCc2cccc(n2)COc2ccccc2/1 | 37.5 µM (inactive) | 26.1 µM (inactive) | > 22.4 µM (inactive) | 12.6 µM (inactive) | 5.31 µM (inactive) | 9.44 µM (inactive) | 8.15 µM (inactive) | 2.56 µM (inactive) | 6.7 µM (inactive) | 23.8 µM (inactive) | 6.43 µM (inactive) | > 56.8 µM (inactive) | 17.2 µM (inactive) | 42.8 µM (inactive) | 12.4 µM (inactive) | 19.5 µM (inactive) | 22.2 µM (inactive) | 13.7 µM (inactive) | 4.59 µM (inactive) | 19.2 µM (inactive)
[Se]=P(c1ccccc1)(c1ccccc1)c1ccc(C(c2ccccc2)=P(c2ccccc2)(c2ccccc2)c2ccccc2)cc1 | 3.05 µM (inactive) | 0.357 µM (active) | 1.01 µM (active) | 0.505 µM (active) | 0.807 µM (active) | 0.764 µM (active) | 2.27 µM (inactive) | 0.0881 µM (active) | 1.2 µM (inactive) | 0.621 µM (active) | 1.32 µM (inactive) | 0.308 µM (active) | 0.537 µM (active) | 2.3 µM (inactive) | 1.13 µM (inactive) | 0.979 µM (active) | 0.661 µM (active) | 0.443 µM (active) | 0.182 µM (active) | 0.8 µM (active)
Cn1c(=O)n(CC(Br)CBr)c(=O)n(CC(Br)CBr)c1=O (stereo not given) | 43.9 µM (inactive) | > 100 µM (inactive) | 75.7 µM (inactive) | 16.5 µM (inactive) | 18.4 µM (inactive) | 58.7 µM (inactive) | 45 µM (inactive) | 20.4 µM (inactive) | 38.1 µM (inactive) | 38.5 µM (inactive) | 26.3 µM (inactive) | 21 µM (inactive) | 38.7 µM (inactive) | 85.3 µM (inactive) | > 100 µM (inactive) | 28.4 µM (inactive) | 33.7 µM (inactive) | 66.2 µM (inactive) | 32.5 µM (inactive) | 31.8 µM (inactive)
O=S1(=O)N=C(NCc2c[nH]c3ccccc23)N(c2ccccc2)c2ccncc21 | > 100 µM (inactive) | 22.6 µM (inactive) | 34.9 µM (inactive) | > 100 µM (inactive) | > 100 µM (inactive) | 27.4 µM (inactive) | > 100 µM (inactive) | > 100 µM (inactive) | 53.3 µM (inactive) | > 100 µM (inactive) | > 100 µM (inactive) | > 100 µM (inactive) | > 100 µM (inactive) | > 100 µM (inactive) | 30 µM (inactive) | > 100 µM (inactive) | > 100 µM (inactive) | > 100 µM (inactive) | > 100 µM (inactive) | > 100 µM (inactive)
C/C(=N\Nc1nc2ccccc2o1)c1ccncn1 | 4.36 µM (inactive) | 0.124 µM (active) | 0.432 µM (active) | 0.181 µM (active) | 0.124 µM (active) | 0.0929 µM (active) | 0.363 µM (active) | 0.0218 µM (active) | 0.0869 µM (active) | 0.0524 µM (active) | 0.0305 µM (active) | 0.0427 µM (active) | 0.0845 µM (active) | 0.0471 µM (active) | 0.228 µM (active) | 1.02 µM (active) | 0.169 µM (active) | 0.129 µM (active) | 0.0514 µM (active) | 0.31 µM (active)
N#C[BH2-][n+]1cn(C2CC(OP(=O)(O)OCC3OC(n4cnc5c(N)ncnc54)CC3O)C(CO)O2)c2nc(N)[nH]c(=O)c21 (stereo not given) | > 100 µM (inactive) | > 100 µM (inactive) | > 100 µM (inactive) | > 100 µM (inactive) | > 100 µM (inactive) | > 100 µM (inactive) | > 100 µM (inactive) | > 100 µM (inactive) | > 100 µM (inactive) | > 100 µM (inactive) | > 100 µM (inactive) | > 100 µM (inactive) | > 100 µM (inactive) | > 100 µM (inactive) | > 100 µM (inactive) | > 100 µM (inactive) | > 100 µM (inactive) | > 100 µM (inactive) | > 100 µM (inactive) | > 100 µM (inactive)
C=C1C(=O)C=C2C=C3C(=O)C(C)(C)C[C@]3(O)C12C (stereo not given in full) | 9.55 µM (inactive) | 1.59 µM (inactive) | 29.5 µM (inactive) | 6.62 µM (inactive) | 5.14 µM (inactive) | 8.57 µM (inactive) | 19 µM (inactive) | 0.497 µM (active) | 1.81 µM (inactive) | 1.8 µM (inactive) | 0.57 µM (active) | 1.5 µM (inactive) | 2.15 µM (inactive) | 1.82 µM (inactive) | 22.5 µM (inactive) | 19.7 µM (inactive) | 2.36 µM (inactive) | 3.43 µM (inactive) | 0.684 µM (active) | 3.14 µM (inactive)
O=c1c(C(c2ccc3ccccc3c2)c2c(O)oc3ccccc3c2=O)c(O)oc2ccccc12 | 28.1 µM (inactive) | 29.2 µM (inactive) | 46.3 µM (inactive) | 22.6 µM (inactive) | 34.6 µM (inactive) | 16.1 µM (inactive) | 50.4 µM (inactive) | 34 µM (inactive) | 25.6 µM (inactive) | 32.5 µM (inactive) | 22.4 µM (inactive) | 30.5 µM (inactive) | 39.1 µM (inactive) | 22.9 µM (inactive) | 39.3 µM (inactive) | 17.9 µM (inactive) | 22.6 µM (inactive) | 26.7 µM (inactive) | 50.6 µM (inactive) | 34.6 µM (inactive)
COc1ccc(C(=O)c2sc(Nc3ccc(Cl)cc3)nc2N)cc1 | > 49.9 µM (inactive) | 35.3 µM (inactive) | 17.2 µM (inactive) | 18.3 µM (inactive) | 9.42 µM (inactive) | 25.9 µM (inactive) | 11.1 µM (inactive) | 0.473 µM (active) | 7.8 µM (inactive) | 8.85 µM (inactive) | 4.04 µM (inactive) | > 21.2 µM (inactive) | 37.6 µM (inactive) | 16.4 µM (inactive) | 7.91 µM (inactive) | 4.91 µM (inactive) | 26.3 µM (inactive) | 12.6 µM (inactive) | 3.82 µM (inactive) | 12.1 µM (inactive)
